Our source for the IC50 values is ChEMBL document CHEMBL4017441, “Mitigating the inhibition of human bile salt export pump by drugs: opportunities provided by physicochemical property modulation, in silico modeling, and structural modification” (Drug Metab Dispos, 2012).

Each structure is given as a SMILES string. Counter-ions that a name gives are not always drawn.

For the experiment, the target named is Bile salt export pump (Homo sapiens, UniProt O95342). In kind it is ADME.
`Clc1ccc(COC(Cn2ccnc2)c2ccc(Cl)cc2Cl)cc1` (centres undefined) [ECONAZOLE]: the IC50 was below 10 µM.

Turning to `CCCn1c(=O)[nH]c(=O)c2[nH]cnc21` [ENPROFYLLINE], the IC50 was above 1000 µM.

Turning to `CCN1CCN(c2cc3c(cc2F)c(=O)c(C(=O)O)cn3C2CC2)CC1` [ENROFLOXACIN], the IC50 was above 1000 µM. The same measure for `N#Cc1ccccc1OCC(O)CNCCNC(=O)Cc1ccc(O)cc1` (centres undefined) [EPANOLOL]: 244 µM; for `C#Cc1cccc(Nc2ncnc3cc(OCCOC)c(OCCOC)cc23)c1` [ERLOTINIB]: below 10 µM; for `C[C@]12CC[C@@H]3c4ccc(O)cc4CC[C@H]3[C@@H]1C[C@@H](O)[C@@H]2O` [ESTRIOL]: above 1000 µM. The same measure for `C[C@]12CC[C@@H]3c4ccc(O)cc4CC[C@H]3[C@@H]1CCC2=O` [ESTRONE]: above 1000 µM. Regarding `CCOc1ccc2nc3cc(N)ccc3c(N)c2c1` [ETHACRIDINE], the IC50 was determined as 43.5 µM. The same measure for `C#C[C@]1(O)CC[C@H]2[C@@H]3CCc4cc(O)ccc4[C@H]3CC[C@@]21C` [ETHINYL ESTRADIOL]: below 10 µM; for `CCc1cc(C(N)=S)ccn1` [ETHIONAMIDE]: above 1000 µM. Consider `CCN(CC)C(C)CN1c2ccccc2Sc2ccccc21` (centres undefined) [ETHOPROPAZINE], for which the IC50 came out at 139 µM.

For `CCC1(C)CC(=O)NC1=O` (centres undefined) [ETHOSUXIMIDE], the half-inhibitory concentration (IC50) is above 1000 µM. Then `CCN1C(=O)NC(c2ccccc2)C1=O` (centres undefined) [ETHOTOIN], with above 792 µM. Then `CC(O)(P(=O)(O)O)P(=O)(O)O` [ETIDRONIC ACID], with above 1000 µM. The same measure for `CCOC(=O)c1cncn1[C@H](C)c1ccccc1` [ETOMIDATE]: 61.6 µM; for `O=C(O)Cc1ccccc1Oc1ccc(Cl)cc1Cl` [FENCLOFENAC]: 236 µM; for `CN1CC(=O)N=C1NC(=O)Nc1cccc(Cl)c1` [FENOBAM ANHYDROUS]: above 1000 µM. For the compound `Oc1ccc(C2CNCCc3c2cc(O)c(O)c3Cl)cc1` (centres undefined) [FENOLDOPAM], the IC50 was above 1000 µM. Then `O=C(NCC1CCCCN1)c1cc(OCC(F)(F)F)ccc1OCC(F)(F)F` (centres undefined) [FLECAINIDE], with 218 µM; and `Cc1onc(-c2c(F)cccc2Cl)c1C(=O)N[C@@H]1C(=O)N2[C@@H]1SC(C)(C)[C@@H]2C(=O)O` [FLOXACILLIN], with below 10 µM.

With `CCOC(=O)c1ncn2c1CN(C)C(=O)c1cc(F)ccc1-2` [FLUMAZENIL], the IC50 was above 733 µM. Turning to `C[C@@H]1C[C@H]2[C@@H]3C[C@H](F)C4=CC(=O)C=C[C@]4(C)[C@@]3(F)[C@@H](O)C[C@]2(C)[C@@]1(O)C(=O)CO` [FLUMETHASONE], the IC50 stood at 68.5 µM. Take `Fc1ccc(C(c2ccc(F)cc2)N2CCN(C/C=C/c3ccccc3)CC2)cc1` [FLUNARIZINE]: the IC50 was below 10 µM. `CC(=O)[C@@]1(O)CC[C@H]2[C@@H]3C[C@H](C)C4=CC(=O)C=C[C@]4(C)[C@@]3(F)[C@@H](O)C[C@@]21C` [FLUOROMETHOLONE]: the IC50 stood at 101 µM. Take `O=c1[nH]cc(F)c(=O)[nH]1` [FLUOROURACIL]: the IC50 is above 1000 µM. Then `OCCN1CCN(CCCN2c3ccccc3Sc3ccc(C(F)(F)F)cc32)CC1` [FLUPHENAZINE], with 25.8 µM; and `CC1(C)O[C@@H]2C[C@H]3[C@@H]4C[C@H](F)C5=CC(=O)CC[C@]5(C)[C@H]4[C@@H](O)C[C@]3(C)[C@]2(C(=O)CO)O1` [FLURANDRENOLIDE], with 71.2 µM. Then `CC(C(=O)O)c1ccc(-c2ccccc2)c(F)c1` (centres undefined) [FLURBIPROFEN], with 725 µM. The same measure for `CC(C)C(=O)Nc1ccc([N+](=O)[O-])c(C(F)(F)F)c1` [FLUTAMIDE]: 60.8 µM; for `CCCc1c(OCC(O)COc2ccc3c(=O)cc(C(=O)O)oc3c2CCC)ccc(C(C)=O)c1O` (centres undefined) [FPL-55712]: below 10 µM; for `CC(=O)O[C@H]1C[C@@]2(C)[C@@H](C[C@@H](O)[C@H]3[C@@]4(C)CC[C@@H](O)[C@@H](C)[C@@H]4CC[C@@]32C)/C1=C(\CCC=C(C)C)C(=O)O` [FUSIDATE SODIUM]: below 10 µM. As for `NCC1(CC(=O)O)CCCCC1` [GABAPENTIN], the IC50 was above 1000 µM. For `CO/N=C1\CN(c2nc3c(cc2F)c(=O)c(C(=O)O)cn3C2CC2)CC1CN` (centres undefined) [GEMIFLOXACIN], the IC50 was above 1000 µM. Then `O=C(OCC(O)CO)c1ccccc1Nc1ccnc2cc(Cl)ccc12` (centres undefined) [GLAFENINE], with below 14.9 µM; and `Cc1ccc(S(=O)(=O)NC(=O)NN2CC3CCCC3C2)cc1` (centres undefined) [GLICLAZIDE], with 591 µM.

For `CCC1=C(C)CN(C(=O)NCCc2ccc(S(=O)(=O)NC(=O)N[C@H]3CC[C@H](C)CC3)cc2)C1=O` [GLIMEPIRIDE], the half-inhibitory concentration (IC50) was below 10 µM. The same measure for `COc1ccccc1O` [GUAIACOL]: above 1000 µM; for `N=C(N)N/N=C/c1c(Cl)cccc1Cl` [GUANABENZ]: 344 µM; for `N=C(N)NCCN1CCCCCCC1` [GUANETHIDINE]: above 1000 µM. The same measure for `CC1(C)O[C@@H]2C[C@H]3[C@@H]4CCC5=CC(=O)CC[C@]5(C)[C@@]4(F)[C@@H](O)C[C@]3(C)[C@]2(C(=O)CCl)O1` [HALCINONIDE]: below 10 µM. Then `CC(=O)NCCCCCCNC(C)=O` [HEXAMETHYLENEBISACETAMIDE], with above 1000 µM; and `Oc1ccc(C(O)CNCCCCCCNCC(O)c2ccc(O)c(O)c2)cc1O` (centres undefined) [HEXOPRENALINE], with above 1000 µM; and `CC(CNC1CCCCC1)OC(=O)c1ccccc1` (centres undefined) [HEXYLCAINE HYDROCHLORIDE], with 506 µM. In the case of `NCCc1c[nH]cn1` [HISTAMINE], the IC50 was above 1000 µM. The same measure for `CCN(CC)CCNc1ccc(CO)c2sc3ccccc3c(=O)c12` [HYCANTHONE]: 29.8 µM; for `NNc1nncc2ccccc12` [HYDRALAZINE]: above 1000 µM. As to `C[C@]12CCC(=O)C=C1CC[C@@H]1[C@@H]2[C@@H](O)C[C@@]2(C)[C@H]1CC[C@]2(O)C(=O)CO` [HYDROCORTISONE], the IC50 came to 252 µM.

As for `NS(=O)(=O)c1cc2c(cc1C(F)(F)F)NCNS2(=O)=O` [HYDROFLUMETHIAZIDE], the IC50 is above 1000 µM. For `OCCOCCN1CCN(C(c2ccccc2)c2ccc(Cl)cc2)CC1` (centres undefined) [HYDROXYZINE], the IC50 is 72.9 µM. The same measure for `CC(C)Cc1ccc(C(C)C(=O)O)cc1` (centres undefined) [IBUPROFEN]: above 789 µM; for `Cc1ccc(NC(=O)c2ccc(CN3CCN(C)CC3)cc2)cc1Nc1nccc(-c2cccnc2)n1` [IMATINIB]: below 10 µM; for `CCn1ccnc1CC1COc2ccccc2O1` (centres undefined) [IMILOXAN]: 61.7 µM. The same measure for `C[C@@H](O)[C@H]1C(=O)N2C(C(=O)O)=C(SCCN=CN)C[C@H]12` [IMIPENEM ANHYDROUS]: above 1000 µM. For the compound `Nc1cc(-c2ccncc2)c[nH]c1=O` [INAMRINONE], the IC50 worked out at 371 µM. The same measure for `c1ccc2c(CCC3CCNCC3)c[nH]c2c1` [INDALPINE]: above 1000 µM. For `CC1Cc2ccccc2N1NC(=O)c1ccc(Cl)c(S(N)(=O)=O)c1` (centres undefined) [INDAPAMIDE], the IC50 stood at 145 µM. Then `O=C(NC1CCN(CCc2c[nH]c3ccccc23)CC1)c1ccccc1` [INDORAMIN], with 109 µM.

Take `Oc1c(I)cc(I)c2cccnc12` [IODOQUINOL]: the IC50 was above 1000 µM.

Turning to `CC(C)NNC(=O)c1ccncc1` [IPRONIAZID], the IC50 was above 953 µM. Then `O=C1c2ccccc2S(=O)(=O)N1CCCCN1CCN(c2ncccn2)CC1` [IPSAPIRONE], with 31.2 µM; and `CCC(NC(C)C)C(O)c1ccc(O)c(O)c1` (centres undefined) [ISOETHARINE], with above 1000 µM. Then `CC(C)NCC(O)c1ccc(O)c(O)c1` (centres undefined) [ISOPROTERENOL], with above 986 µM; and `CC(COc1ccccc1)NC(C)C(O)c1ccc(O)cc1` (centres undefined) [ISOXSUPRINE], with 573 µM. Regarding `CN1CCC(=C2c3ccccc3CC(=O)c3sccc32)CC1` [KETOTIFEN], the IC50 was above 429 µM. As for `CC(CCc1ccccc1)NCC(O)c1ccc(O)c(C(N)=O)c1` (centres undefined) [LABETALOL], the IC50 worked out at 649 µM.

As to `OC[C@@H](O)[C@@H](O[C@@H]1O[C@H](CO)[C@H](O)[C@H](O)[C@H]1O)[C@H](O)[C@@H](O)CO` [LACTITOL], the IC50 is above 1000 µM.

Consider `CS(=O)(=O)CCNCc1ccc(-c2ccc3ncnc(Nc4ccc(OCc5cccc(F)c5)c(Cl)c4)c3c2)o1` [LAPATINIB], for which the IC50 was below 10 µM.

On to `Cc1ccc2c(c1)c1c(n2CCc2ccc(C)nc2)CCN(C)C1` [LATREPIRDINE], for which the IC50 came to 136 µM. The same measure for `C[C@H](CN(C(=O)c1ccc(C#N)cc1)c1ccccn1)N1CCN(c2cccc3c2OCCO3)CC1` [LECOZOTAN]: below 10 µM; for `Cc1oncc1C(=O)Nc1ccc(C(F)(F)F)cc1` [LEFLUNOMIDE]: 110 µM. For `N#Cc1ccc(C(c2ccc(C#N)cc2)n2cncn2)cc1` [LETROZOLE], the IC50 turned out to be 225 µM. The same measure for `Nc1nc2c(c(=O)[nH]1)N(C=O)C(CNc1ccc(C(=O)N[C@@H](CCC(=O)O)C(=O)O)cc1)CN2` (some centres undefined) [LEUCOVORIN]: above 1000 µM; for `c1ccc([C@H]2CN3CCSC3=N2)cc1` [LEVAMISOLE]: above 1000 µM.

As for `CC1(C)Oc2ccc(C#N)cc2[C@@H](N2CCCC2=O)[C@@H]1O` [LEVCROMAKALIM], the IC50 stood at 353 µM. On to `COc1ccc2c(c1)N(C[C@H](C)CN(C)C)c1ccccc1S2` [LEVOMEPROMAZINE], for which the IC50 came out at 127 µM. The same measure for `CN=C(N)NC(=O)Nc1c(C)cccc1C` [LIDAMIDINE]: above 1000 µM; for `Cc1nc(C)c(C)nc1C` [LIGUSTRAZINE]: above 1000 µM; for `Cc1cccc(C)c1CNc1cc(C(=O)NCCO)cn2c(C)c(C)nc12` [LINAPRAZAN]: below 10 µM. Then `CC(=O)NC[C@H]1CN(c2ccc(N3CCOCC3)c(F)c2)C(=O)O1` [LINEZOLID], with above 1000 µM; and `O=C(O)CCCCC1CCSS1` (stereo not drawn) [LIPOIC ACID, ALPHA], with above 1000 µM; and `COc1c(OC)c(OC(C)=O)c2cc(Cl)ccc2c1OC(C)=O` [LONAPALENE], with 14.4 µM. As to `CCCCc1nc(Cl)c(CO)n1Cc1ccc(-c2ccccc2-c2nn[nH]n2)cc1` [LOSARTAN], the IC50 is below 10 µM. The same measure for `Cc1ccc(Cl)c(Nc2ccccc2C(=O)O)c1Cl` [MECLOFENAMIC ACID]: 27.2 µM; for `CC(=O)O[C@]1(C(C)=O)CC[C@H]2[C@@H]3C=C(C)C4=CC(=O)CC[C@]4(C)[C@H]3CC[C@@]21C` [MEGESTROL ACETATE]: below 10 µM.
